Laboratory results: PubChem BioAssay (NCI)
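In this assay, cells in 96-well plates receive the compound at five concentrations for 48 hours. Endpoints are linearly interpolated between the surrounding concentrations. Here, GI50 denotes the concentration required for 50% inhibition of growth. TGI marks complete inhibition of growth.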

Tests used:
Assay in all cases: growth of human tumour cells (NCI), 48 h
[1] = test system: 786-0 renal
[2] = test system: A498 renal
[3] = test system: A549 NSCLC
[4] = test system: ACHN renal
[5] = test system: BT-549 breast
[6] = test system: CAKI-1 renal
[7] = test system: CCRF-CEM leukemia
[8] = test system: COLO 205 colon
[9] = test system: DU-145 prostate
[10] = test system: EKVX NSCLC
[11] = test system: HCC-2998 colon
[12] = test system: HCT-116 colon
[13] = test system: HCT-15 colon
[14] = test system: HL-60(TB) leukemia
[15] = test system: HOP-62 NSCLC
[16] = test system: HOP-92 NSCLC
[17] = test system: HS 578T breast
[18] = test system: HT29 colon
[19] = test system: IGROV1 ovarian
[20] = test system: K-562 leukemia
[21] = test system: KM12 colon
[22] = test system: LOX IMVI melanoma
[23] = test system: M14 melanoma
[24] = test system: MALME-3M melanoma
[25] = test system: MCF7 breast
[26] = test system: MDA-MB-231 breast
[27] = test system: MDA-MB-435
[28] = test system: MDA-MB-468 breast
[29] = test system: MOLT-4 leukemia
[30] = test system: NCI-H226 lung
[31] = test system: NCI-H23 lung
[32] = test system: NCI-H460 lung
[33] = test system: NCI-H522 lung
[34] = test system: NCI/ADR-RES ovarian
[35] = test system: OVCAR-3 ovarian
[36] = test system: OVCAR-4 ovarian
[37] = test system: OVCAR-5 ovarian
[38] = test system: OVCAR-8 ovarian
[39] = test system: PC-3 prostate
[40] = test system: RPMI-8226 leukemia
[41] = test system: RXF 393 renal
[42] = test system: SF-268 CNS
[43] = test system: SF-295 CNS
[44] = test system: SF-539 CNS
[45] = test system: SK-MEL-2 melanoma
[46] = test system: SK-MEL-28 melanoma
[47] = test system: SK-MEL-5 melanoma
[48] = test system: SK-OV-3 ovarian
[49] = test system: SN12C renal
[50] = test system: SNB-19 CNS
[51] = test system: SNB-75 CNS
[52] = test system: SR leukemia
[53] = test system: SW-620 colon
[54] = test system: T-47D breast
[55] = test system: TK-10 renal
[56] = test system: U251 CNS
[57] = test system: UACC-257 melanoma
[58] = test system: UACC-62 melanoma
[59] = test system: UO-31 renal

O=C(/C=C/Nc1ccc(Cl)cc1)c1ccc2c(c1)Nc1ccccc1S2
GI50 [1]: 11 µM
TGI [1]: 23.3 µM
GI50 [2]: 18.4 µM
TGI [2]: 42.5 µM
GI50 [3]: 6.43 µM
TGI [3]: 23.9 µM
GI50 [4]: 11 µM
TGI [4]: 27.8 µM
GI50 [5]: 9.67 µM
TGI [5]: 33.8 µM
GI50 [6]: 10.1 µM
TGI [6]: 24.6 µM
GI50 [7]: 16.9 µM
TGI [7]: 69.2 µM
GI50 [8]: 11.9 µM
TGI [8]: 28.6 µM
GI50 [9]: 8.43 µM
TGI [9]: 27.7 µM
GI50 [10]: 14.6 µM
TGI [10]: 36.8 µM
GI50 [11]: 13.2 µM
TGI [11]: 36.8 µM
GI50 [12]: 10.3 µM
TGI [12]: 29.9 µM
GI50 [13]: 14.9 µM
TGI [13]: > 100 µM
GI50 [14]: 69.8 µM
TGI [14]: > 100 µM
GI50 [15]: 4.15 µM
TGI [15]: 17.1 µM
GI50 [16]: 12.6 µM
TGI [16]: 29.9 µM
GI50 [17]: 3.42 µM
TGI [17]: 19 µM
GI50 [18]: 13.1 µM
TGI [18]: 32 µM
GI50 [19]: 13.2 µM
TGI [19]: 34.6 µM
GI50 [20]: 18.5 µM
TGI [20]: > 100 µM
GI50 [21]: 14.6 µM
TGI [21]: 55.2 µM
GI50 [22]: 10.1 µM
TGI [22]: 23.7 µM
GI50 [23]: 14.6 µM
TGI [23]: 40.2 µM
GI50 [24]: 11.4 µM
TGI [24]: 24.7 µM
GI50 [25]: 6.64 µM
TGI [25]: 23.9 µM
GI50 [26]: 13.3 µM
TGI [26]: 27.9 µM
GI50 [27]: 11.3 µM
TGI [27]: 39.4 µM
GI50 [28]: 3.44 µM
TGI [28]: 14.1 µM
GI50 [29]: 17.6 µM
TGI [29]: > 100 µM
GI50 [30]: 11.6 µM
TGI [30]: 37 µM
GI50 [31]: 5.34 µM
TGI [31]: 20.4 µM
GI50 [32]: 3.77 µM
TGI [32]: 14.7 µM
GI50 [33]: 5.1 µM
TGI [33]: 23.9 µM
GI50 [34]: 5.71 µM
TGI [34]: 20.1 µM
GI50 [35]: 11.4 µM
TGI [35]: 30.5 µM
GI50 [36]: 2.84 µM
TGI [36]: 10.4 µM
GI50 [37]: 15.9 µM
TGI [37]: 68.2 µM
GI50 [38]: 4.38 µM
TGI [38]: 17.8 µM
GI50 [39]: 7.55 µM
TGI [39]: 25.1 µM
GI50 [40]: 17.7 µM
TGI [40]: > 100 µM
GI50 [41]: 14.4 µM
TGI [41]: 30.5 µM
GI50 [42]: 6.05 µM
TGI [42]: 25.1 µM
GI50 [43]: 4.19 µM
TGI [43]: 17.1 µM
GI50 [44]: 8.84 µM
TGI [44]: 21.5 µM
GI50 [45]: 13.6 µM
TGI [45]: 32.8 µM
GI50 [46]: 24 µM
TGI [46]: 79.1 µM
GI50 [47]: 12.4 µM
TGI [47]: 28.4 µM
GI50 [48]: 12.9 µM
TGI [48]: 29.5 µM
GI50 [49]: 13.7 µM
TGI [49]: 66.5 µM
GI50 [50]: 12.2 µM
TGI [50]: 29.3 µM
GI50 [51]: 1.96 µM
TGI [51]: 6.85 µM
GI50 [52]: 21.2 µM
TGI [52]: > 100 µM
GI50 [53]: 10.2 µM
TGI [53]: 24.7 µM
GI50 [54]: 12.9 µM
TGI [54]: 56.4 µM
GI50 [55]: 13.3 µM
TGI [55]: 28.8 µM
GI50 [56]: 6.88 µM
TGI [56]: 21.3 µM
GI50 [57]: 18.7 µM
TGI [57]: 59.9 µM
GI50 [58]: 10.2 µM
TGI [58]: 25.7 µM
GI50 [59]: 16.9 µM
TGI [59]: 34.3 µM
